Data reported in US8119116B2, “Therapeutics for cancer using 3-bromopyruvate and other selective inhibitors of ATP production” (John Hopkins University School of Medicine, priority 2001, dated 2012).

How the values were obtained:
[1] = system: rabbits harboring liver implanted VX2 tumors; experiment: Systemic delivery via marginal ear vein, animal toxicity; format: in vivo, rabbit; conditions: 25 ml, 0.5 mM via a marginal ear vein
Experimental: Normal tissues and tumors were fixed in 10% formalin, sliced at […] intervals for gross examination, and then embedded completely in paraffin after which […] sections were stained with hemotoxylin and eosin. Tumor viability was estimated by visual inspection and expressed as a percentage of viable tumor area for each slice. The overall percentage of viable tumor in each rabbit was calculated.
Finally, it was important to examine the effect of 3-BrPA when delivered systemically (i.e., via the general circulation) on both animal toxicity and its capacity to damage liver implanted tumors.

[2] = system: hexokinase bound to the mitochondrial fraction of the VX2 tumor; experiment: Hexokinase activity of the VX2 tumor mitochondrial fraction; format: biochemical, rabbit; conditions: 5 mM, VX2 tumor mitochondria
Experimental: The freshly isolated liver or VX2 tumor tissues (15-20 g wet weight) was rinsed in 3 volumes of H-medium (210 mM D-mannitol, 70 mM sucrose, 2 mM Hepes, and 0.05% bovine albumin, pH 7.4) at 4° C. and minced with a razor blade as finely as possible. A 30% (V/V) suspension was made using ice-cold H-medium in a Potter-Elvehjem glass homogenizer (55 ml capacity), and homogenization was achieved by applying 4 complete up and down strokes through the suspension with a rotating (˜400 rpm), serrated, teflon pestle attached to a motor. To remove cell debris and nuclei, the resultant homogenate was diluted to twice the initial volume and centrifuged at 630×g for 8 minutes at 4° C. in a Sorvall RC-2B centrifuge using a GSA rotor. The supernatant was removed and then centrifuged at 6,800 g for 15 min under the same conditions. The resultant supernatant was saved and referred to here as the cytosolic faction. The pellet was resuspended in the initial volume of H-medium and centrifuged twice at 9,800×g for 15 min at 4° C. The washed pellet represents the mitochondrial fraction.
The assay coupled the glucose-6-phosphate formed in the hexokinase reaction to the glucose-6-phosphate dehydrogenase reaction. Here, NADP+, oxidizes glucose-6-phosphate to a g-lactone while becoming reduced to NADPH, thus allowing the formation of the latter to be monitored spectrophotometrically at 340 nm. […]

## O=C(O)C(=O)CBr [3BrPA, 3-bromopyruvic acid]
[1]
  animal behavior: normal behavior
[1]; 4 days
  histological examination of 9 major tissues: no obvious damage
[2]
  inhibition of the hexokinase reaction: inhibits completely
